One block for each compound: values may come before it.
Key:
[1] = molecular target: Leucine-rich repeat serine/threonine-protein kinase 2 (Homo sapiens, UniProt Q5S007); assay: Selectivity interaction (Enzymatic assay) EUB0001632a LRRK2
[2] = molecular target: Tyrosine-protein kinase Yes (Homo sapiens) (UniProt P07947); assay: Selectivity interaction (KinomeScan (DiscoverX)) EUB0000666a YES1; conditions: at 10 µM
[3] = molecular target: Dual specificity mitogen-activated protein kinase kinase 1 (Homo sapiens, UniProt Q02750); assay: Selectivity interaction (Upstate Kinase Profiler service (Millipore)) EUB0000056c MAP2K1; conditions: at 1 µM
[4] = molecular target: T1, Leukocyte tyrosine kinase receptor (Homo sapiens, UniProt P29376); conditions: at 10 µM
[5] = molecular target: T1, Leukocyte tyrosine kinase receptor; assay: Selectivity interaction (Kinase panel (Invitrogen)) EUB0000639a LTK; conditions: at 200 nM
[6] = molecular target: Serine/threonine-protein kinase PRP4 homolog (Homo sapiens) (UniProt Q13523); assay: Selectivity interaction (ActivX KiNativ screen (kinase selectivity in THP-1 cell lysates)) EUB0000639a PRPF4; format: subcellular; conditions: lysate, at 1 µM
[7] = molecular target: Bone morphogenetic protein receptor type-1B (Homo sapiens, UniProt O00238); assay: Selectivity interaction (KinomeScan (DiscoverX)) EUB0000655a BMPR1B; conditions: at 10 µM
[8] = molecular target: T2, Serine/threonine-protein kinase DCLK2 (Homo sapiens) (UniProt Q8N568); assay: Selectivity interaction (KinomeScan (DiscoverX)) EUB0000045b DCLK2
T2 sequence (whole entry): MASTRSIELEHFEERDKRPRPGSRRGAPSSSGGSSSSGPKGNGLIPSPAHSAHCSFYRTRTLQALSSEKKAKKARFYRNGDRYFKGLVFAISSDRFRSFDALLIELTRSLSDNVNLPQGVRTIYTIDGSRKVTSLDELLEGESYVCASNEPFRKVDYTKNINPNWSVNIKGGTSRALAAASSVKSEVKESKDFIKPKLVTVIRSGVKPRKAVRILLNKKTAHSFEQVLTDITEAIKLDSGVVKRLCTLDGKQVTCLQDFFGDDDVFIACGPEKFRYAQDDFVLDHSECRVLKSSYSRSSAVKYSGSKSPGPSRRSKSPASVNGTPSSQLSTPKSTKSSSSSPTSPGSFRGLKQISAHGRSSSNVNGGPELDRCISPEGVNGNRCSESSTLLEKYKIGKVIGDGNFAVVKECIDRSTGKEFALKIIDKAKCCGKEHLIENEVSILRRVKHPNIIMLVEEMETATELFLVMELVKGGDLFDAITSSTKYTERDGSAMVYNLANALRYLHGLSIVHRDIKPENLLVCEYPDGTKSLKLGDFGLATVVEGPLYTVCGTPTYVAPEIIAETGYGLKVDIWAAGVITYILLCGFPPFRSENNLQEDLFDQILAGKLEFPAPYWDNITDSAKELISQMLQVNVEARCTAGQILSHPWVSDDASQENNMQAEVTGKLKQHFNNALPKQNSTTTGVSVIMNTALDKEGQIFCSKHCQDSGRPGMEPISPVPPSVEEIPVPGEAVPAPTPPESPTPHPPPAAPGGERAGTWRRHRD

[9] = molecular target: Ephrin type-A receptor 4 (Homo sapiens, UniProt P54764); assay: Selectivity interaction (KinomeScan (DiscoverX)) EUB0001079a EPHA4; conditions: at 1 µM
[10] = molecular target: Phosphatidylinositol 3-kinase catalytic subunit type 3 (Homo sapiens, UniProt Q8NEB9); assay: Selectivity interaction (Kinase panel (KiNativ target engagement assay in Jurkat cells)) EUB0001635a PIK3C3; format: cell-based; conditions: Selectivity number of off-targets 0.0, Selectivity number of targets 233.0, Source Knowledge https://www.sciencedirect.com/science/article/pii/S2451945619300674?via%3Dihub, at 1 µM
[11] = molecular target: Casein kinase II subunit alpha (Homo sapiens, UniProt P68400); assay: Selectivity interaction (KinomeScan (DiscoverX)) EUB0000092b CSNK2A1; conditions: at 10 µM
[12] = molecular target: T3, TGF-beta receptor type-1 (Homo sapiens) (UniProt P36897); conditions: at 10 µM
T3 sequence (whole entry): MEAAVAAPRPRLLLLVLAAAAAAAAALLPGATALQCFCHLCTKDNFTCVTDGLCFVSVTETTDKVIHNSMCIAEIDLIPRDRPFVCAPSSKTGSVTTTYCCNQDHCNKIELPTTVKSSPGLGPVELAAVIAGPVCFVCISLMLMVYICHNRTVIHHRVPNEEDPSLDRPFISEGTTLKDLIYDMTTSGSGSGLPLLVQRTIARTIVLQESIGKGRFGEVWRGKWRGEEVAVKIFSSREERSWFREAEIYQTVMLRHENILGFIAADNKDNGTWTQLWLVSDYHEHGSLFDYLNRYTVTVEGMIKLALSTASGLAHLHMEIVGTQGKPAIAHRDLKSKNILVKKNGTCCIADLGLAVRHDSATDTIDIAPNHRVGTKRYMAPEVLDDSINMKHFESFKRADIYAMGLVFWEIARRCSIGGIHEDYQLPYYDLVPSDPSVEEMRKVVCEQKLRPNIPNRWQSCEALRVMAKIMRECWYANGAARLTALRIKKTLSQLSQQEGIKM

[13] = molecular target: Tyrosine-protein kinase Fgr (Homo sapiens) (UniProt P09769); assay: Selectivity interaction (KinomeScan (DiscoverX)) EUB0001619a FGR; conditions: at 1 µM
[14] = molecular target: T4, Casein kinase I isoform alpha-like (Homo sapiens) (UniProt Q8N752); assay: Selectivity interaction (KinomeScan (DiscoverX)) EUB0001619a CSNK1A1L; conditions: at 1 µM
T4 sequence (whole entry): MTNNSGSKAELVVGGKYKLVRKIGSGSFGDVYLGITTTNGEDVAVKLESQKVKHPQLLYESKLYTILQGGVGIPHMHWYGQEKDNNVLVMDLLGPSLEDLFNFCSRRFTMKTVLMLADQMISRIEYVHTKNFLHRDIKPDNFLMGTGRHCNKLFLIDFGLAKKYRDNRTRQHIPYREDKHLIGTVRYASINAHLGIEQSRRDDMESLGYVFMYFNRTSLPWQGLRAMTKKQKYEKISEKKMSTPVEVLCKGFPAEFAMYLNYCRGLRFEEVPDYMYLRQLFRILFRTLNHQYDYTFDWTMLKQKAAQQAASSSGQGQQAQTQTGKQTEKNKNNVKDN

T1 sequence (P29376 whole entry): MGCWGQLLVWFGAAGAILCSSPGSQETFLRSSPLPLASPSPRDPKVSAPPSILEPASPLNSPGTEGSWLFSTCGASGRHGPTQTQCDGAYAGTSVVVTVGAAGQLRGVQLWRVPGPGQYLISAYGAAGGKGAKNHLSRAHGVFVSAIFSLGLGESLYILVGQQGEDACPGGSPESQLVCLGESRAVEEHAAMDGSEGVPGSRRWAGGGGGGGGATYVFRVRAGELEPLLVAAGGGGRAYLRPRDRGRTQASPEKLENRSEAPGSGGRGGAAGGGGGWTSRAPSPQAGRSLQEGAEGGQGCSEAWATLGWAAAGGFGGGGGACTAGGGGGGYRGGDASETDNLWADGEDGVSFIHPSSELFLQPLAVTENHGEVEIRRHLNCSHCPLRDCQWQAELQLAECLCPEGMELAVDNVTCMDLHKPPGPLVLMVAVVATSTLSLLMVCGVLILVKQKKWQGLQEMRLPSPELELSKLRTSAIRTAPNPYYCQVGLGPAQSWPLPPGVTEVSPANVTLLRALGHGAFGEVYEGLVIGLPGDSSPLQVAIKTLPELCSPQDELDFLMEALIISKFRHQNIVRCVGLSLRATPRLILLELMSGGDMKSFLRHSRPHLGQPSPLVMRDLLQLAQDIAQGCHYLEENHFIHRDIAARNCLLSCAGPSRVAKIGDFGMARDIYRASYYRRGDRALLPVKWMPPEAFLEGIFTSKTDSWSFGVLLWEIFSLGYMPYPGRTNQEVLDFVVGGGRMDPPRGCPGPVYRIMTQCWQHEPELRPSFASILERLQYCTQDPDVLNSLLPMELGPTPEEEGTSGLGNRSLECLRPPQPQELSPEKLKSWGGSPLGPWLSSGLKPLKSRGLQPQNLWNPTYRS
Bone morphogenetic protein receptor type-1B, sequence (O00238 whole entry): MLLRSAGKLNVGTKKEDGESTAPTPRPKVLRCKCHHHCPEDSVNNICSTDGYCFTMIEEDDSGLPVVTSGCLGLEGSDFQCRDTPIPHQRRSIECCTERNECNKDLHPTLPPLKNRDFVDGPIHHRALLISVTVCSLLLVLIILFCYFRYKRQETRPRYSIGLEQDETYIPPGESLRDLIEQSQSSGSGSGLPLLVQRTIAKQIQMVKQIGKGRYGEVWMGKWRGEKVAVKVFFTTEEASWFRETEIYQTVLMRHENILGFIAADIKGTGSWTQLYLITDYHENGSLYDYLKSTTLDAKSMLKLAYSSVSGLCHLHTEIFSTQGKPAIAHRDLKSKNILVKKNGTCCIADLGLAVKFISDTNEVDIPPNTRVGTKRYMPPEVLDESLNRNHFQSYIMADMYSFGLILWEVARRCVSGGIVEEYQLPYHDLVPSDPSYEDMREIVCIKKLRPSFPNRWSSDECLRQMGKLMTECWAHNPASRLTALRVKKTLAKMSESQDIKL
Casein kinase II subunit alpha, sequence (P68400 whole entry, looked up): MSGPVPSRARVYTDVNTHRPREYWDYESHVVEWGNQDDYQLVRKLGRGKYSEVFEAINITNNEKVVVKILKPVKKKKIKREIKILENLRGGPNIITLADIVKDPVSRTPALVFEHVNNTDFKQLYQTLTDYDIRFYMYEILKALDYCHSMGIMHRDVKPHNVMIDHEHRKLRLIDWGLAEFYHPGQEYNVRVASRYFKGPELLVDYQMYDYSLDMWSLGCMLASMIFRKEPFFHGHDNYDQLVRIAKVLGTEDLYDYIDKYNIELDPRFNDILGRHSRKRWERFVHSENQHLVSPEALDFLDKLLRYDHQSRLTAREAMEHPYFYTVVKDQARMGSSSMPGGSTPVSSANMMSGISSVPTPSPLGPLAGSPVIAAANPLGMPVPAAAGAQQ
Leucine-rich repeat serine/threonine-protein kinase 2, sequence (Q5S007 whole entry): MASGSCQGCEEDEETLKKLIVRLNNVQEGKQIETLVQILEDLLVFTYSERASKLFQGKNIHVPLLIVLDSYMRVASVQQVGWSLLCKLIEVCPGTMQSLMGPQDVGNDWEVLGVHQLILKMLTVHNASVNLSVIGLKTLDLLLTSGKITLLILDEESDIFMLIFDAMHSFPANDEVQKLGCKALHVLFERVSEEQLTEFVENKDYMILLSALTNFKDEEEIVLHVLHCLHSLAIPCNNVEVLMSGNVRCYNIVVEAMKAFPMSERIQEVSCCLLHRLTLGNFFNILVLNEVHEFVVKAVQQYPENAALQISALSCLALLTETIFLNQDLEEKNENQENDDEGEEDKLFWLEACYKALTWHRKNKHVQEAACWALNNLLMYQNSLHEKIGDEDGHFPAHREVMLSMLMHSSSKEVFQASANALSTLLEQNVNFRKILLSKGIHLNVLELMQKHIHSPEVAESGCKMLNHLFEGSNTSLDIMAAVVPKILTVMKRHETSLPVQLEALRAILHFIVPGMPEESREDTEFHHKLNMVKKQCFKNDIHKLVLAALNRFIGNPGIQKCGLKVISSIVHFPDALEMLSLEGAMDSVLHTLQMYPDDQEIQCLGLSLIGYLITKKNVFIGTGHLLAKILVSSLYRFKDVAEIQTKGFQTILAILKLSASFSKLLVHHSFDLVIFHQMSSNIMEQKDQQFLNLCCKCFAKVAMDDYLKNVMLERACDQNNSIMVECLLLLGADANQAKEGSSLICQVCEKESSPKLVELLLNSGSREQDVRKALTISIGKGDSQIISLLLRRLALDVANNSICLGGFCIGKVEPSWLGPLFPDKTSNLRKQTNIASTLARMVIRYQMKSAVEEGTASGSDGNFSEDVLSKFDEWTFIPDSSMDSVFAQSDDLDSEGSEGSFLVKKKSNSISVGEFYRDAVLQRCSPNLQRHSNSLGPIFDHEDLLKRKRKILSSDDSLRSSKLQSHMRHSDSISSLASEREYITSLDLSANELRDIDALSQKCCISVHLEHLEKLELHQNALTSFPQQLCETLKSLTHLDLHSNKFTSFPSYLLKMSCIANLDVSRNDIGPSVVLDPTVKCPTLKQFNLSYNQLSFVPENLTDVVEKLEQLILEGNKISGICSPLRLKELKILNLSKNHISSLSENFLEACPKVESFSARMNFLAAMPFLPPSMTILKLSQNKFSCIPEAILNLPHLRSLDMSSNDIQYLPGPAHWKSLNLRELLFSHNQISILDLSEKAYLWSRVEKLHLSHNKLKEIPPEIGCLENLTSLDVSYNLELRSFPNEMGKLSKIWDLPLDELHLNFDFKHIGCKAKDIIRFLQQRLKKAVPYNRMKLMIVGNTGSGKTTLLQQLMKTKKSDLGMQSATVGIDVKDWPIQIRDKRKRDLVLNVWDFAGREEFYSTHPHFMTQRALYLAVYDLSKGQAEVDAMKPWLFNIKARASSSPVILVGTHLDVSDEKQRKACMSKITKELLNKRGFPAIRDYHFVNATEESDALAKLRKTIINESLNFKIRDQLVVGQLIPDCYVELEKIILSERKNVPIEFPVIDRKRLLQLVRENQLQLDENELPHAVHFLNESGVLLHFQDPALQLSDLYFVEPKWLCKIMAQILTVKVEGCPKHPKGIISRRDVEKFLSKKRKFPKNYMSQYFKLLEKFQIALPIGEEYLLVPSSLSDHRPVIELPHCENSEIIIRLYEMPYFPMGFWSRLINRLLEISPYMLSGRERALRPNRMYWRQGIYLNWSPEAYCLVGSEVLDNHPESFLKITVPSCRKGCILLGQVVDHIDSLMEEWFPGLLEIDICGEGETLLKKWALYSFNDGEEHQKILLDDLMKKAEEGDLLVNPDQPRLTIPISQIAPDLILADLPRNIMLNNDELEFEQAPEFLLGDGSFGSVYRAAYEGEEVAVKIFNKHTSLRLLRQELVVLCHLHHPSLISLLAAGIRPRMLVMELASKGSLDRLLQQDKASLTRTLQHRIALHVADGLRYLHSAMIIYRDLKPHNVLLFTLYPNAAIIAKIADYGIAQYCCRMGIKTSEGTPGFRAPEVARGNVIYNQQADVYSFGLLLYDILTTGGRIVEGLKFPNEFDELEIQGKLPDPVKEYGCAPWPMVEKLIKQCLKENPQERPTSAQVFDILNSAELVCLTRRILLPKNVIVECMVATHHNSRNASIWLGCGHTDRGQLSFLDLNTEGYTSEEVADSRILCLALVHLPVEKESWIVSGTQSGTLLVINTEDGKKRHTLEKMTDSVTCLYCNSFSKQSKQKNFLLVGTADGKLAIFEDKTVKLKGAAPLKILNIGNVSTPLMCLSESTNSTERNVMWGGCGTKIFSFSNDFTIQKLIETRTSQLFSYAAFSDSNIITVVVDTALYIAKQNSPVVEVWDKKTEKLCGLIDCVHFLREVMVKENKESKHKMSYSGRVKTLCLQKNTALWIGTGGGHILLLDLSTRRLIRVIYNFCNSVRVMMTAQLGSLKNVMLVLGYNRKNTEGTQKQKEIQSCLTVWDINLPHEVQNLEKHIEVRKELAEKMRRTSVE
Dual specificity mitogen-activated protein kinase kinase 1, sequence (Q02750 whole entry): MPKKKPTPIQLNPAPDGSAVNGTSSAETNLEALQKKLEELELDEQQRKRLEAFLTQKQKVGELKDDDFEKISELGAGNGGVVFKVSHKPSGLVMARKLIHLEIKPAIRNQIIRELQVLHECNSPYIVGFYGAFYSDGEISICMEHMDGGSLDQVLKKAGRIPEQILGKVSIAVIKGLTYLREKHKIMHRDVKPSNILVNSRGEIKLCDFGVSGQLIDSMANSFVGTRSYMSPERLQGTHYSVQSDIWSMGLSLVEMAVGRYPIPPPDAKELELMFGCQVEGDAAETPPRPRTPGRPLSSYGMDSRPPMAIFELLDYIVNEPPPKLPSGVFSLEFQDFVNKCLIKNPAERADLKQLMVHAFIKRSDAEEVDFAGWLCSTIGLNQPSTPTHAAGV

IC50 [1]: > 10 µM
Compound: Cn1cc(-n2cnc3c(NCc4nc5cc(Cl)c(Cl)cc5[nH]4)nc(N4CCOCC4)nc32)cn1

Compound: O=C(NOC[C@H](O)CO)c1ccc(F)c(F)c1Nc1ccc(I)cc1F
% of control [2]: 73%

% of inhibition [3]: -8%
Compound: Cc1ccc(-c2ccc3c(ccc4sc5c(c43)NC[C@@H](C)NC5=O)n2)cn1

% of control [4]: 100%
Compound: CCN(CC)CCCCNc1ncc2cc(-c3cc(OC)cc(OC)c3)c(NC(=O)NC(C)(C)C)nc2n1

% of inhibition [5]: 5.58%
% of inhibition [6]: 64.7%
Compound: CC[C@@H]1[C@H](F)C(=O)N[C@@H]1COc1nccc2cc(C(N)=O)c(OC)cc12 [ZIMLOVISERTIB]

Compound: CN(C)CCOc1ccc(-c2nc(-c3ccncc3)c(-c3ccc4c(c3)CC/C4=N\O)[nH]2)cc1
% of control [7]: 26%

Compound: C=CC(=O)Nc1cc(-n2c(=O)ccc3cnc4ccc(-c5ccc(NS(C)(=O)=O)cc5)cc4c32)ccc1C
% of control ([8]; at 1 µM): 100%
% of control ([8]; at 10 µM): 100%

Compound: Nc1cnc(N2CCc3cc(S(=O)(=O)Nc4c(F)cc(Cl)cc4F)cc(N4CCCC4=O)c32)nc1 [TP-020n]
% of control [9]: 100%

Compound: C=CC(=O)Nc1ccc(C(=O)Nc2[nH]nc3c2CN(C(=O)N[C@H](CN(C)C)c2ccccc2)C3(C)C)cc1
% of engagement [10]: -5.1%

Compound: CCC(=O)N1CCN(c2ccc(-n3c(=O)ccc4cnc5ccc(-c6cnc7ccccc7c6)cc5c43)cc2C(F)(F)F)CC1
% of control [11]: 94%

Compound: Cc1cc([C@@H](C)Nc2ccccc2C(=O)O)c2nc(N3CCOCC3)cc(=O)n2c1 [AZD-6482]
% of control [12]: 100%

Compound: N#Cc1cccc(-c2c[nH]c3ncnc(N4CCOCC4)c23)c1
% of control [13]: 100%
% of control [14]: 96%
